Assay results as given in ChEMBL document CHEMBL3098063, “Dammarane triterpenes from the leaves of Panax ginseng enhance cellular immunity” (Bioorg Med Chem, 2014).
Activity calls are given as the source filed them.

What was measured:
Format in all cases: functional, cell-based
[1] = system: Peritoneal macrophage cell; test: Increase in IL-12 production in LPS-activated mouse peritoneal macrophages at 100 ng/mL after 1 day by ELISA
Splenocyte [2] = test: Stimulation of IL-2 secretion in ConA-activated Balb/C mouse splenocytes at 100 ng/mL after 1 day by ELISA
[3] = system: Peritoneal macrophage cell; test: Inhibition of NO production in LPS-activated mouse peritoneal macrophages at 100 ng/mL after 1 day by ELISA
Splenocyte [4] = test: Inhibition of IL-4 secretion in ConA-activated Balb/C mouse splenocytes at 100 ng/mL after 1 day by ELISA
Splenocyte [5] = test: Inhibition of IL-6 secretion in ConA-activated Balb/C mouse splenocytes at 100 ng/mL after 1 day by ELISA

CC(=O)/C=C/C=C(\C)[C@H]1CC[C@]2(C)[C@@H]1[C@H](O)C[C@@H]1[C@@]3(C)CC[C@H](O)C(C)(C)[C@@H]3[C@@H](O)C[C@]12C
active: Activity [1] | Activity (Splenocyte [2]) | inhibition [3] | inhibition (Splenocyte [4]) | inhibition (Splenocyte [5])

CC(C)=CCC[C@](C)(O)[C@H]1CC[C@]2(C)[C@@H]1[C@H](O)C[C@@H]1[C@@]3(C)CC[C@H](O)C(C)(C)[C@@H]3[C@@H](O[C@@H]3O[C@H](CO)[C@@H](O)[C@H](O)[C@H]3O[C@H]3O[C@@H](C)[C@H](O)[C@@H](O)[C@H]3O)C[C@]12C
active: Activity [1] | Activity (Splenocyte [2]) | inhibition (Splenocyte [4]) | inhibition (Splenocyte [5])

CC(C)=C[C@H]1C[C@](C)(O[C@@H]2O[C@H](CO)[C@@H](O)[C@H](O)[C@H]2O)[C@H]2CC[C@]3(C)[C@@H]2[C@@H](C[C@@H]2[C@@]4(C)CC[C@H](O)C(C)(C)[C@@H]4CC[C@]23C)O1
active: Activity [1] | Activity (Splenocyte [2]) | inhibition [3] | inhibition (Splenocyte [4]) | inhibition (Splenocyte [5])
